Structures are written as SMILES.

This data set can be described thus: gradient 5% acetonitrile 3 min, to 50% in 2 min, to 85% in 15 min, held 3 min, 100 µL/min. The settings on record: column: Zorbax Extend-C18 2.1 x 50 mm; eluents: water / acetonitrile, 0.1% formic acid. The method, boiled down: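 Pure standards were run in mixtures of ~100 molecules by HPLC coupled to a quadrupole time-of-flight mass spectrometer. The column was a Zorbax Extend-C18 (2.1 × 50 mm, 1.8 μm) at 100 μL/min, with water and acetonitrile each containing 0.1% formic acid, in positive and negative ionization mode. Dead and dwell volumes were 40 μL and 900 μL. Retention time was taken from computationally picked adduct peaks, each manually inspected, with data collected over 3 months.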
As for `CN(C)c1nc2cc(C(=O)N3CCC4(CC3)OCCO4)sc2n1-c1ccccc1`, the RP-LC retention time was determined as 647 s.

Turning to `COc1ccc(C(=O)NCCc2c[nH]c3ccc(F)cc23)cc1OC`, the RP-LC retention time is 758 s.

In turn, `Cc1ccc(NC(=O)Cn2cnc3c(-c4ccccc4)csc3c2=O)c(Cl)c1` showed an RP-LC retention time of 965 s.

`O=C(NCCS(=O)(=O)N1CCN(c2ncccn2)CC1)Nc1cccs1` gave an RP-LC retention time of 664 s.

Compound `Cc1ccc(-c2nnc3ccc(SCC(=O)OCc4ccccc4)nn23)cc1` returned an RP-LC retention time of 840 s.

`O=C(Nc1ccc(N2CCOCC2)cc1)C1CCc2sc(C(=O)N3CCCC3)cc2C1` (centres undefined) displayed an RP-LC retention time of 669 s.

In turn, `CCOc1ccc(CNC(=O)C2CCN(S(=O)(=O)c3cn(CC)cn3)CC2)cc1OC` returned an RP-LC retention time of 676 s.

`O=C(Nc1cccc(C(F)(F)F)c1)NC1CCN(c2ccccc2)C1=O` (centres undefined) had an RP-LC retention time of 926 s.

`O=C1CCc2cc(S(=O)(=O)NCc3ccccc3Cl)cc3c2N1CCC3` registered an RP-LC retention time of 863 s.

As to `Nc1nnc(-c2cccnc2)s1`, the RP-LC retention time was found to be 587 s.

The compound `O=c1n(Cc2ccccc2Cl)nc2c(S(=O)(=O)N3CCc4ccccc4C3)cccn12` displayed an RP-LC retention time of 1030 s.

As for `CCN1CCN(CCCNC(=O)C2CCN(c3nc4cccnc4n(CC)c3=O)CC2)CC1`, the RP-LC retention time is 580 s.

Regarding `CCN1C(=O)C2(CCN(S(=O)(=O)c3cccc(C(F)(F)F)c3)CC2)c2ccccc21`, the RP-LC retention time was found to be 1120 s.

Compound `Cc1nnc(NC(=O)c2ccc(S(=O)(=O)NCc3ccccn3)o2)s1` had an RP-LC retention time of 581 s.

In turn, `CC(C)(C)C(=O)Nc1cnc(-c2cccc(Cl)c2)nc1` showed an RP-LC retention time of 1070 s.

For `O=C(CNC(=O)c1ccncc1)Nc1nc2ccccc2[nH]1`, the RP-LC retention time amounted to 554 s.

In turn, `CC1CCN(S(=O)(=O)c2ccc(-c3nnc(C(=O)NCc4ccc5c(c4)OCO5)o3)cc2)CC1` came in with an RP-LC retention time of 1010 s.

Compound `Cc1cc(C)c(S(=O)(=O)N2CC(F)(F)C[C@H]2COc2cccnc2)c(C)c1` gave an RP-LC retention time of 834 s.

In turn, `COc1ccc(C)cc1NC(=O)C1CCN(c2nc(C3CCC3)nc3csc(C)c23)CC1` registered an RP-LC retention time of 847 s.

For `Clc1cccc(-c2nnc(Cc3nc(-c4ccc5c(c4)OCO5)no3)o2)c1`, the RP-LC retention time turned out to be 1020 s.

With `CCCCN(C)C(=O)c1ccc2c(c1)nc1n2CCN(C2CCCCC2)C1=O`, the RP-LC retention time was determined as 786 s.

Regarding `Cc1cccc(C)c1NC(=O)Cn1nc2cc(-c3ccccc3)nc(C)n2c1=O`, the RP-LC retention time was 832 s.

`CCN(CC)S(=O)(=O)c1c(C)nc2sc(C)nn12` showed an RP-LC retention time of 760 s.

For `COc1ccc(OC)c(NC(=O)Cn2c(=O)n(-c3ccccc3)c3ncccc32)c1`, the RP-LC retention time stood at 841 s.

In turn, `Cc1nc(CCNS(=O)(=O)c2ccc(Oc3ccccc3)cc2)cs1` yielded an RP-LC retention time of 845 s.

Take `Cc1cccc(NS(=O)(=O)c2cc3n(c2)CCN(C)C3=O)c1C`: the RP-LC retention time turned out to be 694 s.

Compound `Cc1cccc(-c2nnc(Cc3nc(C(C)(C)C)no3)o2)c1` returned an RP-LC retention time of 1000 s.

The compound `Cc1nc(-c2csc(S(=O)(=O)N3CCC(C(=O)Nc4cccc(Cl)c4)CC3)c2)no1` registered an RP-LC retention time of 1000 s.

`CC(C)NC(=O)N1CCCC(c2nc(C(C)C)no2)CCNC(=O)CC1` (centres undefined) had an RP-LC retention time of 658 s.

The compound `Cn1cc(CN2CCN(C(=O)c3cc(-c4cccs4)[nH]n3)CC2)c2ccccc21` gave an RP-LC retention time of 664 s.

With `Cc1nc(-c2ccccc2)nn1C1CCN(S(=O)(=O)c2cccnc2)C1` (centres undefined), the RP-LC retention time is 716 s.

As for `CCN1CCN(C(=O)c2ccc3ccnc(N4CCN(c5ccc(Cl)cc5)CC4)c3c2)CC1`, the RP-LC retention time came to 618 s.

In the case of `O=C(c1ccc(F)c(F)c1)N1CCC2(CC1)N=C(c1ccc(Cl)cc1)NO2`, the RP-LC retention time was 920 s.

`Cn1c(=O)oc2cc(-c3noc(-c4ccccc4)n3)ccc21` gave an RP-LC retention time of 1010 s.

Compound `COc1ccccc1-n1c(SCC(=O)Nc2ncn[nH]2)nc2ccccc2c1=O` showed an RP-LC retention time of 642 s.

`COc1ccc(Cl)cc1NC(=O)N(C)CC1CCOCC1` returned an RP-LC retention time of 816 s.

`COc1ccc(Cl)cc1C(=O)Nc1cc(-c2cccnc2)no1` registered an RP-LC retention time of 902 s.

Regarding `COc1ccc(CC(=O)NCC(=O)Nc2nc3ccccc3[nH]2)cc1Cl`, the RP-LC retention time came out at 636 s.

`COCCC1CCN(C(=O)COc2ccccc2)CC1`: the RP-LC retention time was 800 s.

Consider `COc1cc(OC)cc(C(=O)Nc2cccc(C(C)=O)c2)c1`, for which the RP-LC retention time is 753 s.

Take `O=C(Cn1cccc1-c1nc(-c2ccc3c(c2)OCO3)no1)N1CCc2ccccc21`: the RP-LC retention time was found to be 1090 s.

Consider `Cc1ccc(F)cc1S(=O)(=O)N1CCC(n2cnnc2C(C)C)CC1`, for which the RP-LC retention time is 740 s.

Regarding `O=S(=O)(c1ccc(Br)cc1)N1CCC(c2noc(-c3ccccc3)n2)CC1`, the RP-LC retention time came to 1180 s.

`O=C(c1cc(F)cc(F)c1)N1CCC(n2c(-c3ccco3)nc3cccnc32)C1` (centres undefined) yielded an RP-LC retention time of 766 s.

Take `Cc1noc(-c2cc(=O)n(CC(=O)Nc3cccc(C(C)C)c3)c3ccccc23)n1`: the RP-LC retention time stood at 996 s.

The compound `CCOC(=O)C1=C(CN2CCN(C3CCCCC3)CC2)NC(=O)NC1c1ccc(OC)cc1` (centres undefined) returned an RP-LC retention time of 656 s.

Regarding `Cc1cccc(NC(=O)C2CCN(S(=O)(=O)c3ccc4c(c3)sc(=O)n4C)CC2)c1C`, the RP-LC retention time came out at 830 s.

`COc1ccc(S(=O)(=O)N2CCN(c3cc(C)nc(NC4CCCCC4)n3)CC2)cc1Cl` displayed an RP-LC retention time of 851 s.

`Fc1ccc(-c2nnc(-c3nc(NC4CCCCC4)c4ccccc4n3)o2)cc1` registered an RP-LC retention time of 1110 s.

Turning to `CCOC(=O)N1CCN(C2CC(=O)N(CCc3ccc(OC)c(OC)c3)C2=O)CC1` (centres undefined), the RP-LC retention time came to 659 s.

Take `Cc1noc2ncn(CC(=O)NCc3cccc(F)c3)c(=O)c12`: the RP-LC retention time worked out at 712 s.

`Cc1ccc(CNC(=O)C2CC(=O)N(c3ccc4c(c3)CCN4C(=O)C3CC3)C2)cc1` (centres undefined) came in with an RP-LC retention time of 756 s.

On to `Cc1ccc2nc(-c3ccc(C)c(NC(=O)C(C)C)c3)[nH]c2c1`, for which the RP-LC retention time was determined as 654 s.

`CN(C)c1ccc(-c2nc(C3CC(=O)N(c4ccc(F)cc4)C3)no2)cc1` (centres undefined) had an RP-LC retention time of 975 s.

For the compound `CCCOC(=O)C1=C(C)NC2=C(C(=O)C(C(=O)OC)C(C)C2)C1c1ccccc1OC` (centres undefined), the RP-LC retention time came out at 906 s.

`CCc1nc2cc(N3CCC(C(=O)Nc4ccccc4OC)CC3)cnc2nc1CC` registered an RP-LC retention time of 942 s.

`O=C(Nc1ccc(Cn2cncn2)cc1)c1ccccn1` showed an RP-LC retention time of 654 s.

Consider `CC(=O)c1ccc(NC(=O)Cn2c(-c3cccnc3)nc3ccccc32)cc1`, for which the RP-LC retention time came to 689 s.

Regarding `COc1ccccc1C(=O)N1c2ccccc2NC(=O)CC1C` (centres undefined), the RP-LC retention time was 639 s.

(Values after the METLIN SMRT retention time set (Domingo-Almenara et al. 2019).)
